In ChEMBL document CHEMBL1131161 (J Med Chem, 1998):

Key:
[1] = tested on: CV-1; test: Inhibitory concentration in CV-1 cell; assay type: functional, cell-based, Cercopithecidae; conditions: Chlorocebus aethiops
[2] = target: T1, Mineralocorticoid receptor (Homo sapiens, UniProt P08235); test: Inhibitory activity (IC50) against human mineralocorticoid receptor expressed in CV-1 cells; assay type: functional, cell-based
T1 sequence (P08235 whole entry): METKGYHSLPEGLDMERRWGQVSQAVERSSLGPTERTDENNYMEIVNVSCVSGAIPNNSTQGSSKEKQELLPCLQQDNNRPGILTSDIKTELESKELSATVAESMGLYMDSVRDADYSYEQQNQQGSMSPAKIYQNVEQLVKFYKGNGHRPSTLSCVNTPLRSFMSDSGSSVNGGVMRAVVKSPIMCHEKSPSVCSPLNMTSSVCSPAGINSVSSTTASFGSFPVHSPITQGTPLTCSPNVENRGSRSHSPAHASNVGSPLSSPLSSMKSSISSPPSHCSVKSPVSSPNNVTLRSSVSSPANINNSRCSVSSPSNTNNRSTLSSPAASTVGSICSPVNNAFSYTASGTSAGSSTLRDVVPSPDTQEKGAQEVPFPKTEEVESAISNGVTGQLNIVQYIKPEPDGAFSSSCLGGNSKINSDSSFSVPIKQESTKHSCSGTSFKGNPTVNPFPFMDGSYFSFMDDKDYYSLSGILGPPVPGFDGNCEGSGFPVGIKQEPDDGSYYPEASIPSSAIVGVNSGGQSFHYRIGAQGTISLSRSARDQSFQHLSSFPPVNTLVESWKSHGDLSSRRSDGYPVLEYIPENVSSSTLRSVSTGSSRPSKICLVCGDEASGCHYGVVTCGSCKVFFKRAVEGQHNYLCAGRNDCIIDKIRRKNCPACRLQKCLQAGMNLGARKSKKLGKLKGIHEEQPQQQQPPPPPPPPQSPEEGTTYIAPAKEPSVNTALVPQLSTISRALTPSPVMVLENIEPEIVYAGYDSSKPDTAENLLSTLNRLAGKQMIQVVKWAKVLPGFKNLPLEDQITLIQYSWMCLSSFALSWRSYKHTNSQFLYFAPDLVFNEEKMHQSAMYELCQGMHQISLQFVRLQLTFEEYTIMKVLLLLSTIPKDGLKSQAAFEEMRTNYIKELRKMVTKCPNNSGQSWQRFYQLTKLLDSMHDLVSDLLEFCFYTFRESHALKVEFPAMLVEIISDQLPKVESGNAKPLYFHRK

[3] = target: Estrogen receptor (Homo sapiens, UniProt Q92731+P03372); conditions: cv-1
Description: IC50 determined against human estrogen receptor in CV-1 cells

[4] = target: T2, Androgen receptor (Homo sapiens, UniProt P10275)
T2 sequence (P10275 whole entry): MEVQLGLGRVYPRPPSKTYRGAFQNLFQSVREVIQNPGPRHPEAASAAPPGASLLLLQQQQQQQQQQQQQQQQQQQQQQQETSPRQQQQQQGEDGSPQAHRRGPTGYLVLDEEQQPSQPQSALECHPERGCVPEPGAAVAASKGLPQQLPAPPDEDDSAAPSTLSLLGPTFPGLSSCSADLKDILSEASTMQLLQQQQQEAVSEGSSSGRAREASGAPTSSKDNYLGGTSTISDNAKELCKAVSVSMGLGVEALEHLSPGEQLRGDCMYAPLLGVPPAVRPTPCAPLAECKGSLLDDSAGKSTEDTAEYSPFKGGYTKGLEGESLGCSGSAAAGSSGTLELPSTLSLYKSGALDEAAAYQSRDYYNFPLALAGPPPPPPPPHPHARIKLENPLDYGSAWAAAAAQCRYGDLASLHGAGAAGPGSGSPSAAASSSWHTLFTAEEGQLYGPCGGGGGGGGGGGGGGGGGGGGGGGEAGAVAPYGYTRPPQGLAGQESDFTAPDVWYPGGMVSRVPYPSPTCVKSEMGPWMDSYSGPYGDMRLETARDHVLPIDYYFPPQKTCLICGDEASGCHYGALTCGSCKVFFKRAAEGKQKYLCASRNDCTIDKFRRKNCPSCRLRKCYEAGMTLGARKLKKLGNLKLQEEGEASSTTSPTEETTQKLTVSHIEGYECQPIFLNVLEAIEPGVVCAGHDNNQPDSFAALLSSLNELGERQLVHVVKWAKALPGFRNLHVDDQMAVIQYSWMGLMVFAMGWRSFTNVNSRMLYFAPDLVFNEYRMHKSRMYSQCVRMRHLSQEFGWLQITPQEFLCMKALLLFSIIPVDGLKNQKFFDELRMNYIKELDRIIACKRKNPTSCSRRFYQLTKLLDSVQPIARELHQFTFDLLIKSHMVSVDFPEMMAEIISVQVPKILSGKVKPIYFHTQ
Description: Inhibitory activity (IC50) against human androgen receptor expressed in CV-1 cells

[5] = target: T3, Glucocorticoid receptor (Homo sapiens, UniProt P04150)
T3 sequence (P04150 whole entry): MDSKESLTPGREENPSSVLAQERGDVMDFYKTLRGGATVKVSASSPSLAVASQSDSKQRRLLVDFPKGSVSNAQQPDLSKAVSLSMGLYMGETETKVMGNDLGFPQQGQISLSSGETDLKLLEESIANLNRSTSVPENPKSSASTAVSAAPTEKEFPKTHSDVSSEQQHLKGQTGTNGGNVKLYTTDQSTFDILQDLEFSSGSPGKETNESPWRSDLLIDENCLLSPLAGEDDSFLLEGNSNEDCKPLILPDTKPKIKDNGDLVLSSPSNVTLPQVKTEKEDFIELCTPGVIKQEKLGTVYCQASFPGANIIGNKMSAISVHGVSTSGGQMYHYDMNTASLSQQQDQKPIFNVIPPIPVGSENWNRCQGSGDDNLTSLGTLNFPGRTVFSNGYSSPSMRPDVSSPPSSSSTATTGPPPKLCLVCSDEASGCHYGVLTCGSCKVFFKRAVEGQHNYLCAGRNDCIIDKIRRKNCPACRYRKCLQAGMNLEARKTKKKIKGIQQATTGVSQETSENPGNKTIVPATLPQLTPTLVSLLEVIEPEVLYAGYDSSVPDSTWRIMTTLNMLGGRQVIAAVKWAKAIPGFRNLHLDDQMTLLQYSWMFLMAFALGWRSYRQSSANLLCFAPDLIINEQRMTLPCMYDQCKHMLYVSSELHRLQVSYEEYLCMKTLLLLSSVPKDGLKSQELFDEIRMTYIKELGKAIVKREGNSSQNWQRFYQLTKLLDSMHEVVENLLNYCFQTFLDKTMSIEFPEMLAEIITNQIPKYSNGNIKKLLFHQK
Description: Inhibitory activity (IC50) against human glucocorticoid receptor expressed in CV-1 cells

[6] = target: T3, Glucocorticoid receptor; test: biochemical
Description: Binding affinity against human glucocorticoid receptor expressed in SF-12 cells

[7] = target: T4, Progesterone receptor (Homo sapiens, UniProt P06401); test: Binding affinity against human progesterone receptor
T4 sequence (P06401 whole entry): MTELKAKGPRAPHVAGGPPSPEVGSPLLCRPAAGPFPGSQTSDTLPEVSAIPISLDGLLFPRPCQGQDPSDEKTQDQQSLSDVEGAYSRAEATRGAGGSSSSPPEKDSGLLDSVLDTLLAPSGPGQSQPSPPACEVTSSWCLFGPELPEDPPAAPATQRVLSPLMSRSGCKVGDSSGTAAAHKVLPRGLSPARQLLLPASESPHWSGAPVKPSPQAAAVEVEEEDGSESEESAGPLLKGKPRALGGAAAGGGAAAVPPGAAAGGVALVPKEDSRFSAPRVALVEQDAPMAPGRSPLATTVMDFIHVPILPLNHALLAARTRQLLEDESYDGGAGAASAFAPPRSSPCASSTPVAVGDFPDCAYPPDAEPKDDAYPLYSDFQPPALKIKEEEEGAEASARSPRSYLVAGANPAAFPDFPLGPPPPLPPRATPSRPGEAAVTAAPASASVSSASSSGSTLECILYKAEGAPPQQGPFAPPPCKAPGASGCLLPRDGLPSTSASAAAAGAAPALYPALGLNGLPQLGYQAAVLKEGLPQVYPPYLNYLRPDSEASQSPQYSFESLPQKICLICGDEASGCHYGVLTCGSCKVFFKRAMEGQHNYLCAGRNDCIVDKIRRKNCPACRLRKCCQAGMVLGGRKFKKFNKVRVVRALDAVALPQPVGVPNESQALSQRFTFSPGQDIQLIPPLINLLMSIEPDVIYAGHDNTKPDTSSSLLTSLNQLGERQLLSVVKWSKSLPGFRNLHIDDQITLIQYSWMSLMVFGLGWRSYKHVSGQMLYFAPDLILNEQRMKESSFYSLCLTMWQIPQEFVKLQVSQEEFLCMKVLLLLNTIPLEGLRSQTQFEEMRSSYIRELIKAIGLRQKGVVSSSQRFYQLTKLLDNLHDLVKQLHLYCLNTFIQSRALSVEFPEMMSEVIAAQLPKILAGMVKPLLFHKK

[8] = target: T2, Androgen receptor; remark: listed apart in the source
Description: Binding affinity against human androgen receptor

[9] = target: T4, Progesterone receptor; test: Effective concentration (EC50) against human progesterone receptor expressed in CV-1 cell; assay type: functional, cell-based
[10] = tested on: CV-1; test: Inhibitory concentration was determined from full dose response curves ranging from 10 E -12 to 10 E -5M in CV-1 cell; assay type: functional, Cercopithecidae
[11] = tested on: CV-1; test: inhibitory concentration was determined from full dose response curves ranging from 10 E -12 to 10 E -5M in CV-1 cell; assay type: functional, cell-based, Cercopithecidae; conditions: Chlorocebus aethiops

Structure (SMILES)	IC50 [1] [µM]	Ki [7] [µM]	EC50 [9] [µM]	further results
CC1=CC(C)(C)Nc2ccc3c(c21)C(c1ccccc1)Oc1ccccc1-3 (centres undefined)	0.29			
CC1=CC(C)(C)Nc2ccc3c(c21)/C(=C/c1ccccc1)Oc1ccccc1-3	> 10	0.0049	0.0244	IC50 [2]: 3 µM; IC50 [3]: > 10 µM; IC50 [4]: 0.65 µM; IC50 [5]: 0.737 µM; Ki [6]: 0.299 µM; Ki [8]: 2.66 µM
CC1=CC(C)(C)Nc2ccc3c(c21)/C(=C/c1cccc(F)c1F)Oc1ccccc1-3	0.531	0.0243	0.0263	
CC1=CC(C)(C)Nc2ccc3c(c21)/C(=C/c1ccc(F)cc1)Oc1ccccc1-3	> 10	0.0035	0.0595	
CC1=CC(C)(C)Nc2ccc3c(c21)/C(=C/c1ccc(Cl)cc1)Oc1ccccc1-3	0.88	0.06	0.139	
CC1=CC(C)(C)Nc2ccc3c(c21)/C(=C/c1ccc(Br)cc1)Oc1ccccc1-3	> 10	0.0087	0.0315	
CC1=CC(C)(C)Nc2ccc3c(c21)/C(=C/c1cccc(Br)c1)Oc1ccccc1-3	> 10	0.0221	0.037	
CC1=CC(C)(C)Nc2ccc3c(c21)C(Cc1ccccc1)Oc1ccccc1-3 (centres undefined)	0.27	0.0021	0.0168	
CC1=CC(C)(C)Nc2ccc3c(c21)/C(=C/c1ccc(C)cc1)Oc1ccccc1-3	0.59	0.07	> 10	
COc1cccc(/C=C2\Oc3ccccc3-c3ccc4c(c32)C(C)=CC(C)(C)N4)c1	0.425	0.0533	> 10	
CC1=CC(C)(C)Nc2ccc3c(c21)/C(=C/c1cccc(F)c1)Oc1ccccc1-3	> 10	0.00083	0.0076	IC50 [2]: > 10 µM; IC50 [3]: > 10 µM; IC50 [4]: 0.795 µM; IC50 [5]: 0.458 µM; Ki [6]: 0.18 µM; Ki [8]: 0.798 µM
CC1=CC(C)(C)Nc2ccc3c(c21)/C(=C/c1ccccc1Br)Oc1ccccc1-3	> 10	0.0055	0.0578	
CC1=CC(C)(C)Nc2ccc3c(c21)/C(=C/c1cccc(Cl)c1)Oc1ccccc1-3	> 10	0.0187	0.117	
CC1=CC(C)(C)Nc2ccc3c(c21)/C(=C/c1cc(F)cc(F)c1)Oc1ccccc1-3	> 10	0.0126	0.0477	
CC1=CC(C)(C)Nc2ccc3c(c21)/C(=C/c1cccc(C)c1)Oc1ccccc1-3	> 10	0.0397	0.075	
CC1=CC(C)(C)Nc2ccc3c(c21)/C(=C/c1ccccc1Cl)Oc1ccccc1-3	> 10	0.0013	0.0578	
CC1=CC(C)(C)Nc2ccc3c(c21)/C(=C/c1c(F)cccc1F)Oc1ccccc1-3	0.22	0.0313	0.032	
CC1=CC(C)(C)Nc2ccc3c(c21)/C(=C/c1ccc(F)cc1F)Oc1ccccc1-3	0.55		0.022	
CC1=CC(C)(C)Nc2ccc3c(c21)/C(=C/c1ccccc1F)Oc1ccccc1-3	> 10	0.0056	0.029	
CC(=O)O[C@]1(C(C)=O)CC[C@H]2[C@@H]3C[C@H](C)C4=CC(=O)CC[C@]4(C)[C@H]3CC[C@@]21C [MEDROXYPROGESTERONE ACETATE]				IC50 [10]: >10 µM; IC50 [5]: 0.01 µM
CC(=O)[C@H]1CC[C@H]2[C@@H]3CCC4=CC(=O)CC[C@]4(C)[C@H]3CC[C@]12C [PROGESTERONE]				IC50 [11]: > 10 µM
